Assay results from paper PMC7464201, “Synthesis and Cytotoxic Activity of Novel C-23-Modified Asiatic Acid Derivatives” (Molecules, 2020).
Read-outs that look alike come from different tables or passages of the source.

Tests used:
[1] = tested on: human ovarian (SKOV-3) cancer cell line; test: MTT cytotoxicity assay, SKOV-3; type: cell-based; conditions: Homo sapiens, SK-OV-3; MTT, 72 h, six concentrations, mean ± SD of three independent experiments
Protocol: (§1) To establish a SAR of the C-3 (R2) and C-23 (R1) of the AA derivatives, new compounds were subjected to MTT assays to evaluate their in-vitro antiproliferative activities against ovarian (SKOV-3) and colon (HCT-116) cancer cell lines, the IC50 values (the concentration that inhibits 50% of cell growth) of which are summarized in Table 1. Doxorubicin was used as the positive drug.
(§2) HCT116, SKOV-3, A549, A2780, HepG2, HL-60 and MCF-7 cells were incubated in DMEM with 10% heat-inactivated FBS in a humidified atmosphere of 5.0% CO2 at 37 °C. The in-vitro cytotoxicity of AA derivatives was determined using MTT assay. A 100-μL volume of culture medium at a concentration of 3 × 10^4 cell/mL was added to 96-well plate wells, which were maintained in a humidified atmosphere of 5.0% CO2 at 37 °C. After 24 h, 10 μL solution of AA derivatives and doxorubicin dissolved in DMSO and phophate buffered saline (PBS) and then diluted with DMEM under a concentration gradient, was added in the wells for final concentrations of 100, 10, 1, 0.1, 0.01, 0.001 μM of compounds in HCT116 and SKOV-3 cells and 125, 25, 5, 1, 0.2, 0.04 μM in A549, A2780, HepG2, HL-60 and MCF-7 cells. After 72 h incubation in a humidified atmosphere of 5.0% CO2 at 37 °C, 20 μl MTT solution (5 mg/mL) was added into each well and the cells were incubated. After 4 h, 100 μL HCl aqueous solution (0.01 M) with 10% SDS and 5% isobutanol was added into each well to dissolve the precipitated formazan and the absorbance was read at 570 nm on Thermo Scientific Varioskan Flash plate reader. All IC50 values were averaged from three independent experiments.

[2] = tested on: human colon (HCT-116) cancer cell line; test: MTT cytotoxicity assay, HCT116; type: cell-based; conditions: for IC50: Homo sapiens, HCT-116, MTT, 72 h, six concentrations, mean ± SD of three independent experiments
Protocol: as §1, §2

[3] = tested on: A549 cells; parameters: method as in PMID 31057738; conditions: literature value for AA; cited from earlier work
[4] = tested on: A2780 cells; parameters: method as in PMID 30278332; conditions: literature value for AA; cited from earlier work
[5] = tested on: HepG2 cells; parameters: method as in PMID 31057738; conditions: literature value for AA; cited from earlier work
[6] = tested on: MCF-7 cells; parameters: method as in PMID 26974379; conditions: literature value for AA; cited from earlier work
[7] = tested on: human normal cell line (HUVEC); parameters: method as in PMID 25151580; conditions: literature value for AA; cited from earlier work
[8] = tested on: A549 cells; test: MTT cytotoxicity assay, A549; type: cell-based; conditions: Homo sapiens, 72 h, mean ± SD of three independent experiments
Protocol: as §2

[9] = tested on: A2780 cells; test: MTT cytotoxicity assay, A2780; type: cell-based; conditions: Homo sapiens, 72 h, mean ± SD of three independent experiments
Protocol: as §2

[10] = tested on: HepG2 cells; test: MTT cytotoxicity assay, HepG2; type: cell-based; conditions: Homo sapiens, 72 h, mean ± SD of three independent experiments
Protocol: as §2

[11] = tested on: HL-60 cells; test: MTT cytotoxicity assay, HL-60; type: cell-based; conditions: Homo sapiens, 72 h, mean ± SD of three independent experiments
Protocol: as §2

[12] = tested on: MCF-7 cells; test: MTT cytotoxicity assay, MCF-7; type: cell-based; conditions: Homo sapiens, MCF7, 72 h, mean ± SD of three independent experiments
Protocol: as §2

[13] = tested on: human normal cell line (HUVEC); test: CCK-8 cytotoxicity assay, human normal cell line HUVEC; type: cell-based; conditions: for cytotoxic effect on HUVEC cell viability: CCK-8, concentrations of 125, 25, 5, 1, 0.2, 0.04 μM, 72 h; for IC50: HUVEC, CCK-8, 72 h, human normal cell line
Protocol: Additionally, the cytotoxic activities of compounds 10, 14j and 14k were evaluated against one human normal cell line (HUVEC) using CCK-8 assay (Table 3).
HUVEC cell lines were incubated in DMEM with 10% heat-inactivated FBS in a humidified atmosphere of 5.0% CO2 at 37 °C. The in-vitro cytotoxicity of AA derivatives was determined using CCK-8. A 100-μL volume of culture medium at a concentration of 3 × 10^4 cell/mL was added to 96-well plate wells, and these were maintained in a humidified atmosphere of 5.0% CO2 at 37 °C. After 24 h, 10 μL solution of AA derivatives dissolved in DMSO and PBS and then diluted with DMEM under a concentration gradient was added to the wells for final concentrations of 125, 25, 5, 1, 0.2, 0.04 μM. After 72 h incubation in a humidified atmosphere of 5.0% CO2 at 37 °C, 10 μl CCK-8 solution was added into each well and the cells were incubated for another 1 h, and the absorbance was read at 450 nm. All cell viability levels were averaged from three independent experiments.

[14] = tested on: human ovarian cancer cells (A2780); parameters: method as in PMID 27416552, PMID 24268794; conditions: read-out: EC50 against human ovarian cancer cells (A2780); cited from earlier work

| Compound | IC50 [1] [µM] | IC50 [2] [µM] | IC50 [8] [µM] | IC50 [9] [µM] | IC50 [10] [µM] | IC50 [11] [µM] | IC50 [12] [µM] | cytotoxic effect on HUVEC cell viability [13] | IC50 [13] [µM] | also measured |
| --- | --- | --- | --- | --- | --- | --- | --- | --- | --- | --- |
| C[C@H]1[C@H](C)CC[C@]2(C(=O)O)CC[C@]3(C)C(=CC[C@@H]4[C@@]5(C)C[C@@H](O)[C@H](O)[C@@](C)(CO)[C@@H]5CC[C@]43C)[C@H]12 [AA, 2α,3β,23-trihydroxyurs-12-ene-28-oic acid] | 20.5 ± 4.06 | 24.6 ± 3.26 |  |  |  |  |  |  |  | IC50 [3]: 41 ± 0.87 µM; IC50 [4]: 28.2 ± 0.3 µM; IC50 [5]: 35.4 ± 1.47 µM; IC50 [6]: 68.5 ± 2.5 µM; IC50 [7]: > 100 µM |
| COC(=O)[C@@]1(C)[C@@H]2CC[C@]3(C)[C@H](CC=C4[C@@H]5[C@@H](C)[C@H](C)CC[C@]5(C(=O)NCc5ccccc5)CC[C@]43C)[C@@]2(C)C[C@@H](OC)[C@@H]1OC(C)=O [Compound 10, α-Methoxy-3β-Acetoxy-Urs-12-Ene-28-Benzylamide-23-Methyl Ester] |  | 1.08 ± 0.66 | > 125 | 1.28 ± 0.32 | 1.43 ± 0.32 | 0.47 ± 0.08 | 3.99 ± 1.21 | no cytotoxic effect | > 125 | fold more active than AA against HCT116 cell line ([2]; relative to AA): 23 fold |
| CO[C@@H]1C[C@@]2(C)[C@@H](CC[C@]3(C)[C@@H]2CC=C2[C@@H]4[C@@H](C)[C@H](C)CC[C@]4(C(=O)NCc4ccccc4)CC[C@]23C)[C@](C)(C(=O)N2CCN(C)CC2)[C@H]1O [Compound 13k, α-Methoxy-3β-Hydroxy-Urs-12-Ene-28-Benzylamide-23-(4-Methyl-1-Piperazinyl)-Amide] |  |  | 5.7 ± 0.58 | 13 ± 1.18 | 2.22 ± 0.68 | 10.7 ± 2.08 | 2.85 ± 0.25 |  |  |  |
| CCOC(=O)CCCNC(=O)[C@@]1(C)[C@@H]2CC[C@]3(C)[C@H](CC=C4[C@@H]5[C@@H](C)[C@H](C)CC[C@]5(C(=O)NCc5ccccc5)CC[C@]43C)[C@@]2(C)C[C@@H](OC)[C@@H]1OC(C)=O [Compound 14i, N-(2α-Methoxy-3β-Acetoxy-Urs-12-Ene-28-Benzylamide-23-Oyl)-4-Aminobutyric Ethyl Ester] | > 100 | > 100 |  |  |  |  |  |  |  |  |
| CO[C@@H]1C[C@@]2(C)[C@@H](CC[C@]3(C)[C@@H]2CC=C2[C@@H]4[C@@H](C)[C@H](C)CC[C@]4(C(=O)NCc4ccccc4)CC[C@]23C)[C@](C)(C(=O)N(C)C)[C@H]1OC(C)=O [Compound 14j, α-Methoxy-3β-Acetoxy-Urs-12-Ene-28-Benzyl Amide-23-Dimethylamide] |  | 1.83 ± 0.91 | 6.72 ± 0.64 | 2.24 ± 0.52 | 3.77 ± 1.22 | 3.01 ± 0.44 | 5.89 ± 1.33 | no cytotoxic effect | > 125 |  |
| CO[C@@H]1C[C@@]2(C)[C@@H](CC[C@]3(C)[C@@H]2CC=C2[C@@H]4[C@@H](C)[C@H](C)CC[C@]4(C(=O)NCc4ccccc4)CC[C@]23C)[C@](C)(C(=O)N2CCN(C)CC2)[C@H]1OC(C)=O [Compound 14k, α-Methoxy-3β-Acetoxy-Urs-12-Ene-28-Benzylamide-23-(4-Methyl-1-Piperazinyl)-Amide] |  |  | 4.04 ± 0.51 | 4.31 ± 0.58 | 2.84 ± 0.46 | 3.36 ± 0.66 | 1.78 ± 0.38 | no cytotoxic effect | > 125 |  |
| COc1cccc2c1C(=O)c1c(O)c3c(c(O)c1C2=O)C[C@@](O)(C(=O)CO)C[C@@H]3O[C@H]1C[C@H](N)[C@H](O)[C@H](C)O1 [Doxorubicin, reference compound] | 0.08 ± 0.01 | 0.03 ± 0.02 |  |  |  |  |  |  |  |  |
| CC(=O)O[C@@H]1C[C@]2(C)[C@H]3CC=C4[C@@H]5CC(C)(C)CC[C@]5(C(=O)NCc5ccccc5)CC[C@@]4(C)[C@]3(C)CC[C@H]2C(C)(C)[C@H]1OC(C)=O [EM2] |  |  |  |  |  |  |  |  |  | EC50 [14]: 0.5 µM |
